Measurements: the CheMixHub ionic liquid set
± gives the uncertainty stated by the source.

Assay: xn = mol fraction of the nth substance listed
Conditions: 101 kPa, x1 = 0.838

Work on `COCC[n+]1ccn(C)c1.O=S(=O)([N-]S(=O)(=O)C(F)(F)F)C(F)(F)F` + O yielded a viscosity (283 K) of 66.6 ± 1.6 mPa·s and an electrical conductivity (298.15 K) of 0.58 S/m.
